Assay results reported in ChEMBL document CHEMBL5550102, “Caged xanthone derivatives to promote mitochondria-mediated apoptosis in breast cancer cells” (Bioorg Med Chem, 2024).

Key:
[1] = tested on: HepG2; assay: Cytotoxicity against human HepG2 cells incubated for 72 hrs by CCK8 assay; assay type: functional, cell-based; settings: HepG2, 72 h
[2] = tested on: A549; assay: Cytotoxicity against human A549 cells incubated for 72 hrs by CCK8 assay; assay type: functional, cell-based; settings: A549, 72 h
[3] = tested on: MDA-MB-231; assay: Cytotoxicity against human MDA-MB-231 cells incubated for 72 hrs by CCK8 assay; assay type: functional, cell-based; settings: MDA-MB-231, 72 h
[4] = tested on: MDA-MB-231; assay: Induction of cell cycle arrest at G2/M phase in human MDA-MB-231 cells incubated for 12 to 24 hrs by PI/RNase staining based flow cytometry; assay type: functional; settings: dose <= 20.0 µM, time 12-24 hrs
[5] = tested on: MDA-MB-231; assay: Induction of cell cycle arrest at G2/M phase in human MDA-MB-231 cells at 20 uM incubated for 12 to 24 hrs by PI/RNase staining based flow cytometry relative to control; assay type: functional; settings: time 12-24 hrs
[6] = tested on: MDA-MB-231; assay: Induction of apoptosis in human MDA-MB-231 cells assessed as viable cells at 15 uM incubated for 24 hrs by Annexin V-FITC/PI staining based flow cytometry (reference value: 88.2 %); assay type: functional; settings: read-out: Activity
[7] = tested on: MDA-MB-231; assay: Induction of apoptosis in human MDA-MB-231 cells assessed as early apoptotic cells at 15 uM incubated for 24 hrs by Annexin V-FITC/PI staining based flow cytometry (reference value: 7.39 %); assay type: functional
[8] = tested on: MDA-MB-231; assay: Induction of apoptosis in human MDA-MB-231 cells assessed as late apoptotic cells at 15 uM incubated for 24 hrs by Annexin V-FITC/PI staining based flow cytometry (reference value: 3.36 %); assay type: functional
[9] = tested on: MDA-MB-231; assay: Induction of apoptosis in human MDA-MB-231 cells assessed as necrotic cells at 15 uM incubated for 24 hrs by Annexin V-FITC/PI staining based flow cytometry (reference value: 1.06 %); assay type: functional
[10] = tested on: MDA-MB-231; assay: Induction of apoptosis in human MDA-MB-231 cells assessed as viable cells at 17.5 uM incubated for 24 hrs by Annexin V-FITC/PI staining based flow cytometry (reference value: 88.2 %); assay type: functional; settings: read-out: Activity
[11] = tested on: MDA-MB-231; assay: Induction of apoptosis in human MDA-MB-231 cells assessed as early apoptotic cells at 17.5 uM incubated for 24 hrs by Annexin V-FITC/PI staining based flow cytometry (reference value: 7.39 %); assay type: functional
[12] = tested on: MDA-MB-231; assay: Induction of apoptosis in human MDA-MB-231 cells assessed as late apoptotic cells at 17.5 uM incubated for 24 hrs by Annexin V-FITC/PI staining based flow cytometry (reference value: 3.36 %); assay type: functional
[13] = tested on: MDA-MB-231; assay: Induction of apoptosis in human MDA-MB-231 cells assessed as necrotic cells at 17.5 uM incubated for 24 hrs by Annexin V-FITC/PI staining based flow cytometry (reference value: 1.06 %); assay type: functional
[14] = tested on: MDA-MB-231; assay: Induction of apoptosis in human MDA-MB-231 cells assessed as viable cells at 20 uM incubated for 24 hrs by Annexin V-FITC/PI staining based flow cytometry (reference value: 88.2 %); assay type: functional; settings: read-out: Activity
[15] = tested on: MDA-MB-231; assay: Induction of apoptosis in human MDA-MB-231 cells assessed as early apoptotic cells at 20 uM incubated for 24 hrs by Annexin V-FITC/PI staining based flow cytometry (reference value: 7.39 %); assay type: functional
[16] = tested on: MDA-MB-231; assay: Induction of apoptosis in human MDA-MB-231 cells assessed as late apoptotic cells at 20 uM incubated for 24 hrs by Annexin V-FITC/PI staining based flow cytometry (reference value: 3.36 %); assay type: functional
[17] = tested on: MDA-MB-231; assay: Induction of apoptosis in human MDA-MB-231 cells assessed as necrotic cells at 20 uM incubated for 24 hrs by Annexin V-FITC/PI staining based flow cytometry (reference value: 1.06 %); assay type: functional
[18] = tested on: MDA-MB-231; assay: Induction of apoptosis in human MDA-MB-231 cells assessed as viable cells at 15 uM incubated for 48 hrs by Annexin V-FITC/PI staining based flow cytometry (reference value: 91.2 %); assay type: functional; settings: read-out: Activity
[19] = tested on: MDA-MB-231; assay: Induction of apoptosis in human MDA-MB-231 cells assessed as early apoptotic cells at 15 uM incubated for 48 hrs by Annexin V-FITC/PI staining based flow cytometry (reference value: 5.72 %); assay type: functional
[20] = tested on: MDA-MB-231; assay: Induction of apoptosis in human MDA-MB-231 cells assessed as late apoptotic cells at 15 uM incubated for 48 hrs by Annexin V-FITC/PI staining based flow cytometry (reference value: 2.79 %); assay type: functional
[21] = tested on: MDA-MB-231; assay: Induction of apoptosis in human MDA-MB-231 cells assessed as necrotic cells at 15 uM incubated for 48 hrs by Annexin V-FITC/PI staining based flow cytometry (reference value: 0.33 %); assay type: functional
[22] = tested on: MDA-MB-231; assay: Induction of apoptosis in human MDA-MB-231 cells assessed as viable cells at 17.5 uM incubated for 48 hrs by Annexin V-FITC/PI staining based flow cytometry (reference value: 91.2 %); assay type: functional; settings: read-out: Activity
[23] = tested on: MDA-MB-231; assay: Induction of apoptosis in human MDA-MB-231 cells assessed as early apoptotic cells at 17.5 uM incubated for 48 hrs by Annexin V-FITC/PI staining based flow cytometry (reference value: 5.72 %); assay type: functional
[24] = tested on: MDA-MB-231; assay: Induction of apoptosis in human MDA-MB-231 cells assessed as late apoptotic cells at 17.5 uM incubated for 48 hrs by Annexin V-FITC/PI staining based flow cytometry (reference value: 2.79 %); assay type: functional
[25] = tested on: MDA-MB-231; assay: Induction of apoptosis in human MDA-MB-231 cells assessed as necrotic cells at 17.5 uM incubated for 48 hrs by Annexin V-FITC/PI staining based flow cytometry (reference value: 0.33 %); assay type: functional
[26] = tested on: MDA-MB-231; assay: Induction of apoptosis in human MDA-MB-231 cells assessed as viable cells at 20 uM incubated for 48 hrs by Annexin V-FITC/PI staining based flow cytometry (reference value: 91.2 %); assay type: functional; settings: read-out: Activity
[27] = tested on: MDA-MB-231; assay: Induction of apoptosis in human MDA-MB-231 cells assessed as early apoptotic cells at 20 uM incubated for 48 hrs by Annexin V-FITC/PI staining based flow cytometry (reference value: 5.72 %); assay type: functional
[28] = tested on: MDA-MB-231; assay: Induction of apoptosis in human MDA-MB-231 cells assessed as late apoptotic cells at 20 uM incubated for 48 hrs by Annexin V-FITC/PI staining based flow cytometry (reference value: 2.79 %); assay type: functional
[29] = tested on: MDA-MB-231; assay: Induction of apoptosis in human MDA-MB-231 cells assessed as necrotic cells at 20 uM incubated for 48 hrs by Annexin V-FITC/PI staining based flow cytometry (reference value: 0.33 %); assay type: functional
[30] = tested on: MDA-MB-231; assay: Induction of mitochondrial dysfunction in human MDA-MB-231 cells assessed as cell with low mitochondrial membrane potential at 15 uM incubated for 24 hrs by JC-1 staining based flow cytometry (reference value: 3.68 %); assay type: functional
[31] = tested on: MDA-MB-231; assay: Induction of mitochondrial dysfunction in human MDA-MB-231 cells assessed as cell with low mitochondrial membrane potential at 17.5 uM incubated for 24 hrs by JC-1 staining based flow cytometry (reference value: 3.68 %); assay type: functional
[32] = tested on: MDA-MB-231; assay: Induction of mitochondrial dysfunction in human MDA-MB-231 cells assessed as cell with low mitochondrial membrane potential at 20 uM incubated for 24 hrs by JC-1 staining based flow cytometry (reference value: 3.68 %); assay type: functional
[33] = tested on: MDA-MB-231; assay: Induction of mitochondrial dysfunction in human MDA-MB-231 cells assessed as cell with low mitochondrial membrane potential at 15 uM incubated for 48 hrs by JC-1 staining based flow cytometry (reference value: 2.50 %); assay type: functional
[34] = tested on: MDA-MB-231; assay: Induction of mitochondrial dysfunction in human MDA-MB-231 cells assessed as cell with low mitochondrial membrane potential at 17.5 uM incubated for 48 hrs by JC-1 staining based flow cytometry (reference value: 2.50 %); assay type: functional
[35] = tested on: MDA-MB-231; assay: Induction of mitochondrial dysfunction in human MDA-MB-231 cells assessed as cell with low mitochondrial membrane potential at 20 uM incubated for 48 hrs by JC-1 staining based flow cytometry (reference value: 2.50 %); assay type: functional
[36] = tested on: MDA-MB-231; assay: Induction of apoptosis in human MDA-MB-231 cells assessed as increase in cleaved caspase-9 level incubated for 24 to 48 hrs by Western blot analysis; assay type: functional, cell-based; settings: dose <= 20.0 µM, time 24-48 hrs
[37] = tested on: MDA-MB-231; assay: Induction of apoptosis in human MDA-MB-231 cells assessed as increase in cleaved caspase-9 level upto 20 uM by Western blot analysis; assay type: functional, cell-based; settings: time 24-48 hrs, TDE = time-dependent effect

COC(=O)C[C@]12C=C3C(=O)c4cccc(C)c4O[C@@]3(CC1)[C@H]1C(=O)N(c3ccc(C(F)(F)F)cc3)C(=O)[C@H]12
IC50 [1]: 32.9 µM | IC50 [2]: 40.1 µM | IC50 [3]: 27 µM

COC(=O)C[C@]12C=C3C(=O)c4ccccc4O[C@@]3(CC1)[C@H]1C(=O)N(c3ccc(Br)cc3)C(=O)[C@H]12
IC50 [1]: 25.6 µM | IC50 [2]: 24.3 µM | IC50 [3]: 24.4 µM

COC(=O)C[C@]12C=C3C(=O)c4ccccc4O[C@@]3(CC1)[C@H]1C(=O)N(C(C)(C)C)C(=O)[C@H]12
IC50 [1]: > 50 µM | IC50 [2]: > 50 µM | IC50 [3]: > 50 µM

COC(=O)C[C@]12C=C3C(=O)c4cc(F)ccc4O[C@@]3(CC1)[C@H]1C(=O)N(c3ccc(Br)cc3)C(=O)[C@H]12
IC50 [1]: > 50 µM | IC50 [2]: > 50 µM | IC50 [3]: > 50 µM

COC(=O)C[C@]12C=C3C(=O)c4ccccc4O[C@@]3(CC1)[C@H]1C(=O)N(C)C(=O)[C@H]12
IC50 [1]: 16.7 µM | IC50 [2]: 37.2 µM | IC50 [3]: 37.6 µM

COC(=O)C[C@]12C=C3C(=O)c4ccccc4O[C@@]3(CC1)[C@H]1C(=O)N(c3ccc(OC)cc3)C(=O)[C@H]12
IC50 [1]: > 50 µM | IC50 [2]: > 50 µM | IC50 [3]: > 50 µM

CC(=O)O[C@H]1C(=O)[C@@]2(C)[C@H]([C@H](OC(=O)c3ccccc3)[C@]3(O)C[C@H](OC(=O)[C@H](O)[C@@H](NC(=O)c4ccccc4)c4ccccc4)C(C)=C1C3(C)C)[C@]1(OC(C)=O)CO[C@@H]1C[C@@H]2O [PACLITAXEL]
IC50 [1]: 0.06 µM | IC50 [2]: 0.4 µM | IC50 [3]: 0.11 µM

COC(=O)C[C@]12C=C3C(=O)c4ccccc4O[C@@]3(CC1)[C@H]1C(=O)NC(=O)[C@H]12
IC50 [1]: > 50 µM | IC50 [2]: > 50 µM | IC50 [3]: > 50 µM

COC(=O)C[C@]12C=C3C(=O)c4ccccc4O[C@@]3(CC1)[C@H]1C(=O)N(Cc3ccccc3)C(=O)[C@H]12
IC50 [1]: > 50 µM | IC50 [2]: > 50 µM | IC50 [3]: > 50 µM

COC(=O)C[C@]12C=C3C(=O)c4ccccc4O[C@@]3(CC1)[C@H]1C(=O)N(c3ccccc3)C(=O)[C@H]12
IC50 [1]: 23.6 µM | IC50 [2]: 41.9 µM | IC50 [3]: 30.5 µM

COC(=O)C[C@]12C=C3C(=O)c4ccccc4O[C@@]3(CC1)[C@H]1C(=O)N(c3ccc(C(F)(F)F)cc3)C(=O)[C@H]12
IC50 [1]: 15.9 µM | IC50 [2]: 19.3 µM | IC50 [3]: 13 µM | Activity [4]: Dose-Dependent Effect | Activity [5]: >15% | viability at 15 µM [6]: 84.2% | Activity [7]: 9.01% | Activity [8]: 5.84% | Activity [9]: 0.98% | viability at 17.5 µM [10]: 72.8% | Activity [11]: 15.3% | Activity [12]: 10.3% | Activity [13]: 1.7% | viability at 20 µM [14]: 62.1% | Activity [15]: 18.8% | Activity [16]: 16.8% | Activity [17]: 2.33% | viability at 15 µM [18]: 67.4% | Activity [19]: 24.4% | Activity [20]: 7.51% | Activity [21]: 0.7% | viability at 17.5 µM [22]: 40.7% | Activity [23]: 43.4% | Activity [24]: 14.5% | Activity [25]: 1.38% | viability at 20 µM [26]: 26% | Activity [27]: 56.9% | Activity [28]: 15.2% | Activity [29]: 1.87% | Activity [30]: 29.07% | Activity [31]: 53% | Activity [32]: 59.57% | Activity [33]: 70.23% | Activity [34]: 92.63% | Activity [35]: 96.87% | Activity [36]: Dose-Dependent Effect | Activity [37]: Tde

COC(=O)C[C@]12C=C3C(=O)c4ccccc4O[C@@]3(CC1)[C@H]1C(=O)N(C3CCCCC3)C(=O)[C@H]12
IC50 [1]: > 50 µM | IC50 [2]: > 50 µM | IC50 [3]: > 50 µM

COC(=O)C[C@]12C=C3C(=O)c4cccc(C)c4O[C@@]3(CC1)[C@H]1C(=O)N(c3ccc(Br)cc3)C(=O)[C@H]12
IC50 [1]: 22.5 µM | IC50 [2]: 29.1 µM | IC50 [3]: 23.4 µM

COC(=O)C[C@]12C=C3C(=O)c4cc(F)ccc4O[C@@]3(CC1)[C@H]1C(=O)N(c3ccc(C(F)(F)F)cc3)C(=O)[C@H]12
IC50 [1]: > 50 µM | IC50 [2]: > 50 µM | IC50 [3]: > 50 µM
